In PubChem BioAssay AID1259408 (Genetic Toxicology Data Bank (GENE-TOX), 2018):
Active and inactive are the calls of the source. No rule for the calls is given here.

System: GENE-TOX genotoxicity assays, various organisms and cells
Test: GENE-TOX mutagenicity studies
Details: for call: Assay Type: In vivo carcinogenicity studies
[1] = Species/Cell Type: Mouse lymphoma (L5178Y) cells, Assay Type: Forward gene mutation at the thymidine kinase (TK) locus, chromosome aberrations, Assay Code: L51+, Evaluation Type: Evaluation A (Pre-1980)
[2] = Species/Cell Type: Nonhuman, Assay Type: Sister-chromatid exchange (SCE) in vitro, Assay Code: SC2+, Evaluation Type: Evaluation B (Post-1980)
[3] = Species/Cell Type: Nonhuman, Assay Type: Sister-chromatid exchange (SCE) in vivo, Assay Code: SC3+, Evaluation Type: Evaluation B (Post-1980)
[4] = Species/Cell Type: Salmonella typhimurium (one or more of the five standard strains: TA98, TA100, TA1535, TA1537, and TA1538), Assay Type: Histidine reverse gene mutation, Ames assay, Assay Code: SAL-, Evaluation Type: Evaluation A (Pre-1980)
[5] = Species/Cell Type: Saccharomyces cerevisiae, Assay Type: Mitotic recombination or gene conversion, Assay Code: YEC-, Evaluation Type: Evaluation A (Pre-1980)
[6] = Species/Cell Type: Salmonella typhimurium (one or more of the five standard strains: TA98, TA100, TA1535, TA1537, and TA1538), Assay Type: Histidine reverse gene mutation, Ames assay, Assay Code: SALT, Evaluation Type: Evaluation A (Pre-1980)
[7] = Species/Cell Type: Human lymphocytes, Assay Type: Sister-chromatid exchange (SCE) in vitro, Assay Code: SCLT, Evaluation Type: Evaluation B (Post-1980)
[8] = Species/Cell Type: Human, Assay Type: Sister-chromatid exchange (SCE) in vitro, Assay Code: SC1T, Evaluation Type: Evaluation B (Post-1980)

CC/C(=C(/CC)c1ccc(O)cc1)c1ccc(O)cc1
mutagenic call (Species/Cell Type: Escherichia coli polA (W3119 vs P3478), Assay Type: Rec-assay, DNA effects (bacterial DNA repair), Assay Code: RE1T, Evaluation Type: Evaluation A (Pre-1980)): no conclusion | mutagenic call (Species/Cell Type: Fischer rat embryo (RLV/1706) cells, Assay Type: Cell transformation, viral enhanced, Assay Code: CTR+, Evaluation Type: Evaluation A (Pre-1980)): active; positive | mutagenic call (Species/Cell Type: Human diploid fibroblasts, Assay Type: Unscheduled DNA synthesis (UDS) in vitro, DNA effects, Assay Code: UDHT, Evaluation Type: Evaluation A (Pre-1980)): no conclusion | mutagenic call (Species/Cell Type: Human lymphocytes, Assay Type: Sister-chromatid exchange (SCE) in vitro, Assay Code: SCL+D, Dose Response: With dose response, Evaluation Type: Evaluation B (Post-1980)): active; positive | mutagenic call (Species/Cell Type: Human, Assay Type: Sister-chromatid exchange (SCE) in vitro, Assay Code: SC1+D, Dose Response: With dose response, Evaluation Type: Evaluation B (Post-1980)): active; positive | mutagenic call (Species/Cell Type: Human, Sex: Male, Assay Type: Sperm morphology, Assay Code: SPHT, Evaluation Type: Evaluation A (Pre-1980)): no conclusion | mutagenic call (Species/Cell Type: Mammalian polychromatic erythrocytes, Assay Type: Micronucleus test, chromosome aberrations, Assay Code: MNT+, Evaluation Type: Evaluation A (Pre-1980)): active; positive | mutagenic call (Species/Cell Type: Mouse (BALB/c-3T3) cells, Assay Type: Cell transformation, Assay Code: CTB-, Evaluation Type: Evaluation A (Pre-1980)): inactive; negative | mutagenic call [1]: active; positive | mutagenic call (Species/Cell Type: Mouse, Sex: Male, Assay Type: Sperm morphology, Assay Code: SPIT, Evaluation Type: Evaluation A (Pre-1980)): no conclusion | mutagenic call (Species/Cell Type: Neurospora crassa, Assay Type: Aneuploidy, chromosome aberrations, Assay Code: NEN-, Evaluation Type: Evaluation A (Pre-1980)): inactive; negative | call (Species/Cell Type: Nonhuman, Assay Code: CCG+, Evaluation Type: Evaluation A (Pre-1980)): active; positive | mutagenic call [2]: active; positive | mutagenic call (Species/Cell Type: Nonhuman, Assay Type: Sister-chromatid exchange (SCE) in vitro, Assay Code: SC2-, Evaluation Type: Evaluation A (Pre-1980)): inactive; negative | mutagenic call [3]: active; positive | mutagenic call [4]: inactive; negative | mutagenic call (Species/Cell Type: Salmonella typhimurium, Assay Type: Forward and reverse gene mutation, body fluid assay, Assay Code: BFU-, Evaluation Type: Evaluation A (Pre-1980)): inactive; negative | mutagenic call (Species/Cell Type: Syrian hamster embryo (SHE) cells, Assay Type: Cell transformation, clonal assay, Assay Code: CTCT, Evaluation Type: Evaluation A (Pre-1980)): no conclusion | mutagenic call (Species/Cell Type: Tradescantia species, Assay Type: Gene mutation, Assay Code: TRM+D, Dose Response: With dose response, Evaluation Type: Evaluation A (Pre-1980)): active; positive

O=C1OC2(c3ccccc31)c1cc(I)c(O)c(I)c1Oc1c2cc(I)c(O)c1I
mutagenic call (Species/Cell Type: Bacillus subtilis (H17 vs M45), Assay Type: Rec-assay, spot test, DNA effects (bacterial DNA repair), Assay Code: REW-, Evaluation Type: Evaluation A (Pre-1980)): inactive; negative | mutagenic call (Species/Cell Type: Bacillus subtilis (H17 vs M45T), Assay Type: Rec-assay, spot test, DNA effects (bacterial DNA repair), Assay Code: REXT, Evaluation Type: Evaluation A (Pre-1980)): no conclusion | mutagenic call (Species/Cell Type: Mammalian polychromatic erythrocytes, Assay Type: Micronucleus test, chromosome aberrations, Assay Code: MNT+, Evaluation Type: Evaluation B (Post-1980)): active; positive | mutagenic call [5]: inactive; negative | mutagenic call [4]: inactive; negative

OCc1ccccc1
mutagenic call (Species/Cell Type: Escherichia coli polA (W3119 vs P3478), Assay Type: Rec-assay, DNA effects (bacterial DNA repair), Assay Code: RE1-, Evaluation Type: Evaluation A (Pre-1980)): inactive; negative

O.O.O.O.O=C([O-])[O-].[Ni+2].[Ni].[Ni]
mutagenic call [2]: active; positive

N#CCCN
mutagenic call (Species/Cell Type: Drosophila melanogaster, Assay Type: Sex-linked recessive lethal gene mutation, Assay Code: SRLT, Evaluation Type: Evaluation A (Pre-1980)): no conclusion | mutagenic call [3]: active; positive

CC(C)=CC1C(C(=O)OCc2cccc(Oc3ccccc3)c2)C1(C)C (configuration not stated)
mutagenic call (Species/Cell Type: Human diploid fibroblasts, Assay Type: Unscheduled DNA synthesis (UDS) in vitro, DNA effects, Assay Code: UDH-, Evaluation Type: Evaluation A (Pre-1980)): inactive; negative | mutagenic call (Species/Cell Type: Saccharomyces cerevisiae, Assay Type: Mitotic recombination or gene conversion, Assay Code: YEH-, Evaluation Type: Evaluation A (Pre-1980)): inactive; negative

c1ccc2cc(C3CO3)ccc2c1 (configuration not stated)
mutagenic call (Species/Cell Type: Salmonella typhimurium (one or more of the five standard strains: TA98, TA100, TA1535, TA1537, and TA1538), Assay Type: Histidine reverse gene mutation, Ames assay, Assay Code: SAL+, Evaluation Type: Evaluation A (Pre-1980)): active; positive

CC(=O)OCN(Cc1ccccc1)N=O
mutagenic call [6]: no conclusion

Cc1cc2ccccc2c2ccc3ccc(F)cc3c12
mutagenic call [6]: no conclusion

CN(N=O)C(=O)c1ccc(C(=O)N(C)N=O)cc1
mutagenic call (Species/Cell Type: Arabidopsis species, Assay Type: Gene mutation, Assay Code: ARM-, Evaluation Type: Evaluation A (Pre-1980)): inactive; negative | mutagenic call (Species/Cell Type: Saccharomyces cerevisiae, Assay Type: Mitotic recombination or gene conversion, Assay Code: YEH+, Evaluation Type: Evaluation A (Pre-1980)): active; positive | mutagenic call (Species/Cell Type: Saccharomyces cerevisiae, Assay Type: Reverse gene mutation, Assay Code: YER-, Evaluation Type: Evaluation A (Pre-1980)): inactive; negative

Clc1ccc2c(Cl)ccnc2c1
mutagenic call [6]: no conclusion

CN(C)CCCN1c2ccccc2Sc2ccccc21
mutagenic call (Species/Cell Type: Nonhuman, Assay Type: Sister-chromatid exchange (SCE) in vitro, Assay Code: SC2+D, Dose Response: With dose response, Evaluation Type: Evaluation A (Pre-1980)): active; positive

Nc1ccn([C@H]2C[C@H](O)[C@@H](CO)O2)c(=O)n1
mutagenic call (Species/Cell Type: Chinese hamster lung (V79) cells, Assay Type: Forward gene mutation at the HPRT or ouabain locus, Assay Code: V79-, Evaluation Type: Evaluation A (Pre-1980)): inactive; negative | mutagenic call (Species/Cell Type: Glycine max (soybean), Assay Type: Gene mutation, Assay Code: GLM-, Evaluation Type: Evaluation A (Pre-1980)): inactive; negative | mutagenic call (Species/Cell Type: Human lymphocytes, Assay Type: Sister-chromatid exchange (SCE) in vitro, Assay Code: SCLT, Evaluation Type: Evaluation A (Pre-1980)): no conclusion | mutagenic call (Species/Cell Type: Human, Assay Type: Sister-chromatid exchange (SCE) in vitro, Assay Code: SC1T, Evaluation Type: Evaluation A (Pre-1980)): no conclusion | mutagenic call (Species/Cell Type: Nonhuman, Assay Type: Sister-chromatid exchange (SCE) in vitro, Assay Code: SC2T, Evaluation Type: Evaluation B (Post-1980)): no conclusion

Cc1ncc(CO)c(C(=O)O)c1O
mutagenic call [7]: no conclusion | mutagenic call [8]: no conclusion

[Pb]
mutagenic call (Species/Cell Type: Human lymphocytes or leukocytes, Assay Type: Chromosome aberrations in vitro, Assay Code: CY7-, Evaluation Type: Evaluation A (Pre-1980)): inactive; negative | mutagenic call (Species/Cell Type: Human lymphocytes or leukocytes, Assay Type: Chromosome aberrations in vivo, Assay Code: CY8T, Evaluation Type: Evaluation A (Pre-1980)): no conclusion | mutagenic call (Species/Cell Type: Human, Sex: Male, Assay Type: Sperm morphology, Assay Code: SPH+, Evaluation Type: Evaluation A (Pre-1980)): active; positive | mutagenic call (Species/Cell Type: Nonhuman bone marrow, Assay Type: Chromosome aberrations, in vivo, Assay Code: CY#-, Evaluation Type: Evaluation A (Pre-1980)): inactive; negative | call (Species/Cell Type: Nonhuman, Assay Code: CCGT, Evaluation Type: Evaluation A (Pre-1980)): no conclusion

CC[C@@H](CO)NCCN[C@@H](CC)CO
mutagenic call (Species/Cell Type: Mammalian polychromatic erythrocytes, Assay Type: Micronucleus test, chromosome aberrations, Assay Code: MNT+U, Dose Response: Unconfirmed positive response, Evaluation Type: Evaluation B (Post-1980)): active; positive

COc1cc([C@@H]2c3cc4c(cc3[C@@H](O)[C@H]3COC(=O)[C@H]23)OCO4)cc(OC)c1O
mutagenic call (Species/Cell Type: Chinese hamster ovary (CHO) cells, Assay Type: Forward gene mutation at the HPRT locus, Assay Code: CHOT, Evaluation Type: Evaluation B (Post-1980)): no conclusion

CC1CCCCN1CCNc1ccc(CO)c2sc3ccccc3c(=O)c12 (configuration not stated)
mutagenic call [1]: active; positive

NC1CCSC1=O (configuration not stated)
mutagenic call [7]: no conclusion | mutagenic call [8]: no conclusion

C#CC(C)N(C)C(=O)Nc1ccc(Cl)cc1 (configuration not stated)
mutagenic call [5]: inactive; negative

O=C1CCc2c1c(=O)oc1c3c(cc(O)c21)O[C@H]1OC=C[C@@H]31
mutagenic call [6]: no conclusion
